Reference: US20250170120A1, “ALLOSTERIC STING MODULATORS AND METHODS OF USE” (THE BOARD OF REGENTS OF THE UNIVERSITY OF TEXAS SYSTEM, priority 2022, published 2025)

Experiments:
STING [1] = molecular target: T1, STING (Homo sapiens, UniProt Q86WV6, G230A/H232R/R293Q/R71H); experiment: STING pathway activity in THP1-Dual/THP-1 cells upon cGAMP or MSA-2 stimulation (luciferase/interferon readout); format: cell-based; settings: THP-1 cells
T1 construct: host or cells: THP-1 / THP1-Dual / THP1-Lucia ISG cells
T1 sequence (Q86WV6 whole entry R71H/G230A/H232R/R293Q): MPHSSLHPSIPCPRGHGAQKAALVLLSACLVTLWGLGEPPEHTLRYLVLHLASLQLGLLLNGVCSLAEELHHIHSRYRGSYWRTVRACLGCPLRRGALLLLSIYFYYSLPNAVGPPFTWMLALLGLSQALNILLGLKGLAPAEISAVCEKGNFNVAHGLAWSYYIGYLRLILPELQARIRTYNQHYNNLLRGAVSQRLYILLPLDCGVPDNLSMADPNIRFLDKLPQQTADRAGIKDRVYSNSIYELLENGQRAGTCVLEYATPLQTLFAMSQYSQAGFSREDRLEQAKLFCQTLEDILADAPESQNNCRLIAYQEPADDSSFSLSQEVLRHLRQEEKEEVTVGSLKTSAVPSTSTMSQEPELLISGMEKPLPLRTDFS
Excerpt: Methods of measuring STING activity and by extension, the activity of the compounds discussed herein, are known in the art. As an example, the STING pathway activity may be evaluated using reporter cell lines where a reporter gene (i.e., luciferase, GFP) is expressed under direct or indirect control of interferon response elements. For example, in an exemplary embodiment, the STING pathway can be measured using THP1-Dual™ cells (InvivoGen) which express the Lucia gene (a secreted luciferase reporter gene) under the control of an ISG54 minimal promoter in conjunction with five IFN-stimulated response elements. The STING pathway, when activated, stimulates interferon release which, in this model, will increase luciferase expression in a detectable manner. When inhibited, interferon release will be decreased, reducing luciferase expression in a detectable manner. The compounds can optionally be tested in the presence of external stimulation (i.e., using cGAMP, a natural agonist of STING, or MSA-2).
The STING pathway activity was evaluated in THP1-Dual™ cells (Invivogen). […] After incubating at 37° C. for 16 hours, the luciferase activity was measured by QUANTI-Luc™ (Invivogen).

STING [2] = molecular target: T1, STING; experiment: cGAMP dose-response IFN induction in the presence of increasing compound concentrations; format: cell-based; settings: FIGS. 16A-16D
Description: Compounds UT009, UT019, UT073 and UT122 were tested for their ability to interfere with cGAMP induced STING signaling. FIGS. 16A-16D show dose response plots of cGAMP induced IFN induction in the presence of increasing concentrations of each compound.
Compounds UT017, UT018, UT019 and UT0122 were tested for their ability to interfere with STING signaling. Interferon production in the presence of increasing concentrations of UT017, UT018, UT019 or UT0122 were measured in THP-1 cell lines under basal conditions. […] Compound UT0122 was further tested in THP1-Lucia™ ISG cells for interferon production at varying concentration, in the presence of an increasing dose of a STING agonist cGAMP.

human STING = molecular target: T2, human STING (Homo sapiens, UniProt Q86WV6, H232R); experiment: Cryo-EM structure of human STING in complex with compound; format: binding
T2 construct: human STING residues 1-343, excluding the C-terminal tail; T6SS immunity protein 3 (Tsi3) from Pseudomonas aeruginosa (C, cleaved yes); human rhinovirus 3C protease cleavage site (C); made in house; host or cells: HEK293F cells (pEZT-BM vector)
T2 sequence (Q86WV6 1-343 H232R): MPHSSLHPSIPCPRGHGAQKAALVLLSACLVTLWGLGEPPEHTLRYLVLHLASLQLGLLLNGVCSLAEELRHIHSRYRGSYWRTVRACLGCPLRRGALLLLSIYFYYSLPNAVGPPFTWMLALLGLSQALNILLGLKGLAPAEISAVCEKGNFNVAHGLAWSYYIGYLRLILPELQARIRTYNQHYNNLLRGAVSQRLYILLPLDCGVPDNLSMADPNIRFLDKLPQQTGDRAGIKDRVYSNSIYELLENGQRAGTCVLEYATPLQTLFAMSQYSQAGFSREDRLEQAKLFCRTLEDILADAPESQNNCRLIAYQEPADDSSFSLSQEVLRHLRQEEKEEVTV
Description: Cryo-EM data collection and image processing. Purified wild type human STING at 50 μM were incubated with cGAMP at 100 μM and C53 at 100 μM for formation of the protein/ligands complex. The complex was purified using a Superose 6 10/300 gel filtration column (GE healthcare) in buffer C. Peak fractions were collected and concentrated to 2.9 mg/ml. Additional cGAMP (100 μM) and C53 (100 μM) were added to ensure saturation of the protein by the ligands. The sample was applied to a glow-discharged Quantifoil R1.2/1.3 300-mesh gold holey carbon grid (Quantifoil, Micro Tools GmbH, Germany), blotted under 100% humidity at 4° C. and plunged into liquid ethane using a Mark IV Vitrobot (FEI).
Micrographs were collected on a Titan Krios microscope (FEI) with a K3 Summit direct electron detector (Gatan) in the super-resolution counting mode operated at 300 kV. The slit width of the GIF-Quantum energy filter was set to 20 eV. The nominal magnification was 81,000× and the pixel size of 1.08 Å. Micrographs were dose-fractioned into 36 frames with a total exposure time of 7.2 s at the dose rate of 1.6 e^−/Å^2/frame in the correlated double sampling (CDS) mode. Movie frames were motion-corrected and dose-weighted using the Motioncorr2 program (version 1.2). GCTF 1.06 was used for CTF correction. […] Local resolution was calculated in RELION (FIG. 6B). […]

CC1(C)C(=O)N(Cc2c(F)cccc2C(F)(F)F)c2cc(C(=O)NCc3c(F)cc(F)cc3F)ccc21 [UT009, 1-(2-fluoro-6-(trifluoromethyl)benzyl)-3,3-dimethyl-2-oxo-N-(2,4,6-trifluorobenzyl)indoline-6-carboxamide]
inhibition at 10 µM (STING [1]; 10 μM compound, cGAMP (100 μM) or MSA-2 (10 μM) stimulation): > 50% | Induction of interferon production in the presence of MSA2 (STING [1]; 10 μM MSA2, increasing concentrations of compound): inhibited the induction of interferon production in a dose dependent manner | Interferon production in the presence of cGAMP (STING [1]; 100 μM cGAMP, increasing concentrations of compound): reduction in interferon production with increasing concentration | cGAMP induced IFN induction in the presence of increasing concentrations of compound (STING [2]): dose-dependent suppression of interferon production | Binding site in human STING (cryo-EM) (human STING): bind at the same binding pocket as C53
